Assay results from ChEMBL document CHEMBL2396621, “Design, synthesis and biological evaluation of 2-mercapto-3-phenethylquinazoline bearing anilide fragments as potential antitumor agents: molecular docking study” (2013).

Legend:
Type in all cases: functional
[1] = Cytotoxicity against human EKVX cells assessed as growth inhibition at 10 uM after 48 hrs by coulter counter analysis; details: read-out: GI
TK-10 = assay: Cytotoxicity against human TK10 cells assessed as growth inhibition at 10 uM after 48 hrs by coulter counter analysis; details: TK-10, 48 h, read-out: GI
LOX IMVI = assay: Cytotoxicity against human LOXIMVI cells assessed as growth inhibition at 10 uM after 48 hrs by coulter counter analysis; details: read-out: GI
KM12 = assay: Cytotoxicity against human KM12 cells assessed as growth inhibition at 10 uM after 48 hrs by coulter counter analysis; details: KM12, 48 h, read-out: GI
786-0 = assay: Cytotoxicity against human 786-0 cells assessed as growth inhibition at 10 uM after 48 hrs by coulter counter analysis; details: 786-0, 48 h, read-out: GI
UO-31 = assay: Cytotoxicity against human UO31 cells assessed as growth inhibition at 10 uM after 48 hrs by coulter counter analysis; details: UO-31, 48 h, read-out: GI
SNB-75 = assay: Cytotoxicity against human SNB75 cells assessed as growth inhibition at 10 uM after 48 hrs by coulter counter analysis; details: SNB-75, 48 h, read-out: GI
SK-MEL-28 = assay: Cytotoxicity against human SK-MEL-28 cells assessed as growth inhibition at 10 uM after 48 hrs by coulter counter analysis; details: SK-MEL-28, 48 h, read-out: GI
DU-145 = assay: Cytotoxicity against human DU145 cells assessed as growth inhibition at 10 uM after 48 hrs by coulter counter analysis; details: DU-145, 48 h, read-out: GI
SK-OV-3 = assay: Cytotoxicity against human SKOV3 cells assessed as growth inhibition at 10 uM after 48 hrs by coulter counter analysis; details: SK-OV-3, 48 h, read-out: GI
MCF7 = assay: Cytotoxicity against human MCF7 cells assessed as growth inhibition at 10 uM after 48 hrs by coulter counter analysis; details: MCF7, 48 h, read-out: GI
SK-MEL-5 = assay: Cytotoxicity against human SK-MEL-5 cells assessed as growth inhibition at 10 uM after 48 hrs by coulter counter analysis; details: SK-MEL-5, 48 h, read-out: GI
NCI-H522 = assay: Cytotoxicity against human NCI-H522 cells assessed as growth inhibition at 10 uM after 48 hrs by coulter counter analysis; details: NCI-H522, 48 h, read-out: GI
U-251 = assay: Cytotoxicity against human U251 cells assessed as growth inhibition at 10 uM after 48 hrs by coulter counter analysis; details: U-251, 48 h, read-out: GI
SF-295 = assay: Cytotoxicity against human SF295 cells assessed as growth inhibition at 10 uM after 48 hrs by coulter counter analysis; details: SF-295, 48 h, read-out: GI
SNB-19 = assay: Cytotoxicity against human SNB19 cells assessed as growth inhibition at 10 uM after 48 hrs by coulter counter analysis; details: SNB-19, 48 h, read-out: GI
RXF 393 = assay: Cytotoxicity against human RXF393 cells assessed as growth inhibition at 10 uM after 48 hrs by coulter counter analysis; details: RXF 393, 48 h, read-out: GI
NCI-H23 = assay: Cytotoxicity against human NCI-H23 cells assessed as growth inhibition at 10 uM after 48 hrs by coulter counter analysis; details: NCI-H23, 48 h, read-out: GI
NCI-H460 = assay: Cytotoxicity against human NCI-H460 cells assessed as growth inhibition at 10 uM after 48 hrs by coulter counter analysis; details: NCI-H460, 48 h, read-out: GI
OVCAR-3 = assay: Cytotoxicity against human OVCAR3 cells assessed as growth inhibition at 10 uM after 48 hrs by coulter counter analysis; details: OVCAR-3, 48 h, read-out: GI
HCT-116 = assay: Cytotoxicity against human HCT116 cells assessed as growth inhibition at 10 uM after 48 hrs by coulter counter analysis; details: HCT-116, 48 h, read-out: GI
IGROV-1 = assay: Cytotoxicity against human IGROV1 cells assessed as growth inhibition at 10 uM after 48 hrs by coulter counter analysis; details: IGROV-1, 48 h, read-out: GI
COLO 205 = assay: Cytotoxicity against human COLO205 cells assessed as growth inhibition at 10 uM after 48 hrs by coulter counter analysis; details: COLO 205, 48 h, read-out: GI
ACHN = assay: Cytotoxicity against human ACHN cells assessed as growth inhibition at 10 uM after 48 hrs by coulter counter analysis; details: read-out: GI
NCI-H322M = assay: Cytotoxicity against human NCI-H322M cells assessed as growth inhibition at 10 uM after 48 hrs by coulter counter analysis; details: read-out: GI
NCI-H226 = assay: Cytotoxicity against human NCI-H226 cells assessed as growth inhibition at 10 uM after 48 hrs by coulter counter analysis; details: NCI-H226, 48 h, read-out: GI
HT-29 = assay: Cytotoxicity against human HT-29 cells assessed as growth inhibition at 10 uM after 48 hrs by coulter counter analysis; details: HT-29, 48 h, read-out: GI
OVCAR-8 = assay: Cytotoxicity against human OVCAR8 cells assessed as growth inhibition at 10 uM after 48 hrs by coulter counter analysis; details: OVCAR-8, 48 h, read-out: GI
SF-539 = assay: Cytotoxicity against human SF539 cells assessed as growth inhibition at 10 uM after 48 hrs by coulter counter analysis; details: SF-539, 48 h, read-out: GI
SF-268 = assay: Cytotoxicity against human SF268 cells assessed as growth inhibition at 10 uM after 48 hrs by coulter counter analysis; details: SF-268, 48 h, read-out: GI
UACC-257 = assay: Cytotoxicity against human UACC257 cells assessed as growth inhibition at 10 uM after 48 hrs by coulter counter analysis; details: UACC-257, 48 h, read-out: GI
Hs-578T = assay: Cytotoxicity against human Hs578T cells assessed as growth inhibition at 10 uM after 48 hrs by coulter counter analysis; details: read-out: GI
T47D = assay: Cytotoxicity against human T47D cells assessed as growth inhibition at 10 uM after 48 hrs by coulter counter analysis; details: read-out: GI
OVCAR-4 = assay: Cytotoxicity against human OVCAR4 cells assessed as growth inhibition at 10 uM after 48 hrs by coulter counter analysis; details: OVCAR-4, 48 h, read-out: GI
UACC-62 = assay: Cytotoxicity against human UACC62 cells assessed as growth inhibition at 10 uM after 48 hrs by coulter counter analysis; details: UACC-62, 48 h, read-out: GI
PC-3 = assay: Cytotoxicity against human PC3 cells assessed as growth inhibition at 10 uM after 48 hrs by coulter counter analysis; details: PC-3, 48 h, read-out: GI
BT-549 = assay: Cytotoxicity against human BT549 cells assessed as growth inhibition at 10 uM after 48 hrs by coulter counter analysis; details: BT-549, 48 h, read-out: GI

Compound	inhibition of growth at 10 µM [1]	inhibition of growth at 10 µM (TK-10)	inhibition of growth at 10 µM (LOX IMVI)	inhibition of growth at 10 µM (KM12)	inhibition of growth at 10 µM (786-0)	inhibition of growth at 10 µM (UO-31)	inhibition of growth at 10 µM (SNB-75)	inhibition of growth at 10 µM (SK-MEL-28)	inhibition of growth at 10 µM (DU-145)	inhibition of growth at 10 µM (SK-OV-3)	inhibition of growth at 10 µM (MCF7)	inhibition of growth at 10 µM (SK-MEL-5)	inhibition of growth at 10 µM (NCI-H522)	inhibition of growth at 10 µM (U-251)	inhibition of growth at 10 µM (SF-295)	inhibition of growth at 10 µM (SNB-19)	inhibition of growth at 10 µM (RXF 393)	inhibition of growth at 10 µM (NCI-H23)	inhibition of growth at 10 µM (NCI-H460)	inhibition of growth at 10 µM (OVCAR-3)	also measured
CCOc1ccc(NC(=O)CSc2nc3ccccc3c(=O)n2CCc2ccccc2)cc1	19%	< 10%	11%	< 10%	< 10%	26%	21%	< 10%	< 10%	< 10%	12%	< 10%	11%	27%	< 10%	< 10%	13%	< 10%	11%	< 10%	inhibition of growth at 10 µM (HCT-116): 16%; inhibition of growth at 10 µM (IGROV-1): 21%; inhibition of growth at 10 µM (COLO 205): < 10%; inhibition of growth at 10 µM (ACHN): 12%; inhibition of growth at 10 µM (NCI-H322M): 23%; inhibition of growth at 10 µM (NCI-H226): 31%; inhibition of growth at 10 µM (HT-29): 10%; inhibition of growth at 10 µM (OVCAR-8): 29%; inhibition of growth at 10 µM (SF-539): < 10%; inhibition of growth at 10 µM (SF-268): 25%; inhibition of growth at 10 µM (UACC-257): < 10%; inhibition of growth at 10 µM (Hs-578T): < 10%; inhibition of growth at 10 µM (T47D): 15%; inhibition of growth at 10 µM (OVCAR-4): < 10%; inhibition of growth at 10 µM (UACC-62): < 10%; inhibition of growth at 10 µM (PC-3): < 10%; inhibition of growth at 10 µM (BT-549): < 10%
CC(=O)c1ccc(NC(=O)CSc2nc3ccccc3c(=O)n2CCc2ccccc2)cc1	29%	< 10%	25%	18%	< 10%	10%	41%	23%	11%	17%	16%	25%	51%	10%	21%	20%	< 10%	12%	31%	23%	inhibition of growth at 10 µM (HCT-116): 37%; inhibition of growth at 10 µM (IGROV-1): 20%; inhibition of growth at 10 µM (COLO 205): 12%; inhibition of growth at 10 µM (ACHN): 30%; inhibition of growth at 10 µM (NCI-H322M): 27%; inhibition of growth at 10 µM (NCI-H226): 16%; inhibition of growth at 10 µM (HT-29): 12%; inhibition of growth at 10 µM (OVCAR-8): 42%; inhibition of growth at 10 µM (SF-539): < 10%; inhibition of growth at 10 µM (SF-268): 32%; inhibition of growth at 10 µM (UACC-257): 36%; inhibition of growth at 10 µM (Hs-578T): 33%; inhibition of growth at 10 µM (T47D): 19%; inhibition of growth at 10 µM (OVCAR-4): 25%; inhibition of growth at 10 µM (UACC-62): 28%; inhibition of growth at 10 µM (PC-3): 20%; inhibition of growth at 10 µM (BT-549): < 10%
O=C(CSc1nc2ccccc2c(=O)n1CCc1ccccc1)NCc1ccccc1	25%	20%	17%	< 10%	15%	33%	38%	12%	13%	14%	21%	22%	28%	24%	27%	17%	16%	10%	29%	10%	inhibition of growth at 10 µM (HCT-116): 27%; inhibition of growth at 10 µM (IGROV-1): 39%; inhibition of growth at 10 µM (COLO 205): < 10%; inhibition of growth at 10 µM (ACHN): 38%; inhibition of growth at 10 µM (NCI-H322M): 26%; inhibition of growth at 10 µM (NCI-H226): 13%; inhibition of growth at 10 µM (HT-29): < 10%; inhibition of growth at 10 µM (OVCAR-8): 40%; inhibition of growth at 10 µM (SF-539): 38%; inhibition of growth at 10 µM (SF-268): 28%; inhibition of growth at 10 µM (UACC-257): < 10%; inhibition of growth at 10 µM (Hs-578T): 37%; inhibition of growth at 10 µM (T47D): 20%; inhibition of growth at 10 µM (OVCAR-4): 13%; inhibition of growth at 10 µM (UACC-62): 29%; inhibition of growth at 10 µM (PC-3): 29%; inhibition of growth at 10 µM (BT-549): < 10%
CCOC(=O)c1ccc(NC(=O)CSc2nc3ccccc3c(=O)n2CCc2ccccc2)cc1	34%	< 10%	22%	11%	< 10%	10%	39%	14%	10%	19%	12%	21%	26%	28%	25%	36%	14%	13%	23%	13%	inhibition of growth at 10 µM (HCT-116): 14%; inhibition of growth at 10 µM (IGROV-1): 31%; inhibition of growth at 10 µM (COLO 205): 22%; inhibition of growth at 10 µM (ACHN): 21%; inhibition of growth at 10 µM (NCI-H322M): 23%; inhibition of growth at 10 µM (NCI-H226): 25%; inhibition of growth at 10 µM (HT-29): 12%; inhibition of growth at 10 µM (OVCAR-8): 37%; inhibition of growth at 10 µM (SF-539): < 10%; inhibition of growth at 10 µM (SF-268): 33%; inhibition of growth at 10 µM (UACC-257): 29%; inhibition of growth at 10 µM (Hs-578T): 33%; inhibition of growth at 10 µM (T47D): 17%; inhibition of growth at 10 µM (OVCAR-4): 10%; inhibition of growth at 10 µM (UACC-62): 29%; inhibition of growth at 10 µM (PC-3): 10%; inhibition of growth at 10 µM (BT-549): 12%
